For data set [1], the system named is Aspergillus niger IFO6341. The experiment in a line: Antimicrobial test, filter paper agar flat plate method. It is filed as cell-based. Particulars: 100 μg of specimen on 9 mm filter paper. The method, then: (§1) Using colibacillus strain JM109 as a gram-negative bacterium, Bacillus natto as a […] and Aspergillus niger IFO6341 as a mold, the following antimicrobial test was conducted by the filter paper agar flat plate method, wherein 100 μg of specimen was placed on 9 mm filter paper, dried in air, and standard agar culture medium was used for bacteria and potato dextrose agar culture medium for mold. […] An antimicrobial test was further conducted by the liquid culture medium dilution method using the yeast strain Saccharomyces cerevisise HF7C.

Data set [2] has as its system colibacillus strain JM109. Described as above. It is filed as cell-based. Particulars: 100 μg of specimen on 9 mm filter paper. The method, then: as §1
The next data set concerns Bacillus natto. Described as above. Conditions: 100 μg of specimen on 9 mm filter paper. It is filed as cell-based. The method, then: as §1
Another data set has as its system Cell strain A431. Nature of the data set: Cell cycle inhibiting activity, flow cytometer and microscopic observation. The format is cell-based, human. The method, then: Cell strain A431 derived from […] was used. EMEM culture medium containing 10% bovine fetus serum and 1% MEM nonessential amino acid solution (SIGMA M2025) was used to incubate A431 cells at 37° C. in an incubator saturated with 5% carbon dioxide gas and water vapor. The refined specimen of racemic phenylahistin obtained in EXAMPLE 1 was added to the cells in the log-growth phase and progression of the cell cycle was analyzed by flow cytometer and microscopic observation. The results, shown in Table 1, indicate that this phenylahistin was useful as a cell cycle inhibitor.

In the next data set the test system is 38 tumor cell lines. Nature of the data set: Human Cancer Cell Line Panel (HCC panel) assay, whole panel. It is filed as cell-based. Particulars: (−)-PLH content 24.1%, read-out: GI50 values, range over 38 cell lines. The method, then: The antitumor activity of PLH was evaluated by the Human Cancer Cell Line Panel (HCC panel) assay, see Yamori T., Jap. J Cancer Chemother., (1997), 24, 129-35. This HCC panel consists of 38 tumor cell lines including 7 lung cancer, 6 stomach, 6 colon, 5 ovary, 6 central nerve system, 5 breast, 2 kidney and 1 melanoma cell lines. Each tumor cell was seeded in 96-well tissue culture plates and incubated overnight. Various concentrations (5 doses; final 10^−4, 10^−5, 10^−6, 10^−7 and 10^−8 M) of PLH were added, and the cells were incubated for 48 hours. […] All mice were obtained from Japan SLC (Shizuoka, Japan), P388 leukemia cells were obtained from Dainippon Pharmaceuticals Inc. (Osaka, Japan), Lewis Lung Carcinoma from Riken Cell Bank (Tsukuba, Japan), and Colon 26 cells from the National Cancer Center, Japan (Tokyo, Japan).

For data set [3], the system named is yeast strain Saccharomyces cerevisise HF7C. The experiment in a line: Antimicrobial test, liquid culture medium dilution method. The format is cell-based. The method, then:
as §1

A short description of data set [4]: Solubility of phenylahistin in solvents. The format is physicochemical.
The next data set concerns Microtubule protein. The experiment in a line: Electron microscopy of microtubule protein polymerization. The format is biochemical, bovine. Conditions: 100 μM, 37° C. for 20 min. The method, then:
Microtubule protein (1.5 mg/ml) was polymerized at 37° C. for 20 min in the presence of 100 μM (−)-PLH or vehicle (DMSO). A portion of each sample was diluted 5-fold with 1% glutaraldehyde in the microtubule assembly buffer. Samples were then placed on formvar- and carbon-coated grids, stained with 2% uranyl acetate, and examined using a JEOLJEM-1200 EXII electron microscope JEOL (Tokyo, Japan).

The subject of the next data set is C. albicans 90028. Nature of the data set: Antifungal susceptibility testing, broth dilution (NCCLS M38-A). It is filed as cell-based, Candida albicans. Particulars: Candida albicans; C. albicans 90028; 80% reduction in turbidity; read-out: MIC. The method, then: (§2) Antifungal susceptibility testing was accomplished according to the methods outlined in the National Committee for Clinical Laboratory Standards, M38-A “Reference Method for Broth Dilution Antifungal Susceptibility Testing of Conidium-Forming Filamentous Fungi; Approved Standard.” This includes testing in RPMI-1640 with glutamine and without bicarbonate, an inoculum size of 0.4-5×10^4, and incubation at 30 or 35° C. for 48 hours. […] Drug concentrations were 0.03-16 μg/ml for the investigational compounds, 0.015-8 μg/ml for itraconazole and griseofulvin.
(§3) The minimum lethal concentration (MLC) was determined by plating […] from the MIC concentration and each concentration above the MIC. […] When a MIC was obtained, a minimum fungicidal concentration (MFC) was determined to assess the fungistatic/fungicidal nature of the compound. […] The compound is scored as fungistatic if the cells are able to resume growth and fungicidal if no regrowth is possible because the compound had killed the organisms.
On the technique in general: Broth dilution looks for growth in wells or tubes with falling amounts of substance.

The next data set relates to C. albicans 10231. The data set is described as above. It is filed as cell-based, Candida albicans. Particulars: Candida albicans; C. albicans 10231; 80% reduction in turbidity; read-out: MIC. The method, then:
as §2, §3

The next data set concerns A549 (lung). Nature of the data set: Antiproliferative activity, MTT assay (Table 7). The format is cell-based. Particulars: Homo sapiens, optical purity over 99.8%. The method, then: (§4) In order to examine detailed biological activity, especially antitumor activity of both (+)- and (−)-phenylahistin, resolution of (+)- and (−)-phenylahistin using chiral HPLC was conducted. By repeating chiral separation twice or three times, each enantiomer with an optical purity over 99.8% was obtained, and each enantiomer was recrystallizes from ethanol-hexane mixture.
(§5) Antitumor activity of (+)- and (−)-phenylahistin was examined against seven human cancer cell lines including A431, WiDr, TE-671, Hela, MCF7, A-549 and K562 cells.

The test system of the next data set is Hela (ovary). The experiment in a line: Antiproliferative activity, MTT assay (Table 7). It is filed as cell-based. Conditions: Homo sapiens, optical purity over 99.8%. The method, then: as §4, §5
Background: Tetrazolium assays rely on reduction of a dye to a coloured formazan, in cell work by metabolically active cells.

For a further data set, the system named is WiDr (colon). Nature of the data set: Antiproliferative activity, MTT assay (Table 7). The format is cell-based. Particulars: Homo sapiens, optical purity over 99.8%. The method, then: as §4, §5
In the next data set the test system is MCF7 (breast). The experiment in a line: Antiproliferative activity, MTT assay (Table 7). Conditions: Homo sapiens, optical purity over 99.8%. The format is cell-based. The method, then:
as §4, §5

For another data set, the system named is K562 (leukemia). The experiment in a line: Antiproliferative activity, MTT assay (Table 7). It is filed as cell-based. Particulars: Homo sapiens, optical purity over 99.8%. The method, then:
as §4, §5

A further data set relates to A-431 (damal). The experiment in a line: Antiproliferative activity, MTT assay (Table 7). It is filed as cell-based. Particulars: Homo sapiens, optical purity over 99.8%. The method, then: as §4, §5
A further data set has as its target bovine brain tubulin. Nature of the data set: [^3H]CLC binding to tubulin and competition assay. Particulars: Dixon plot, assuming competitive inhibition; 0.5 μM [^3H]CLC; read-out: estimated Ki value for CLC binding. The method, then:
[^3H]CLC binding to tubulin was evaluated by the ultrafiltration method of Takahashi, M., et al., Biochim. Biophys. […] The concentration of unbound [^3H]CLC in the filtrates was determined using a EcoLite™(+) liquid scintillator from ICN Pharmaceuticals Inc. (Costa Mesa, Calif.). Specific bound [^3H]CLC concentrations were determined by adding an excess (×100) of unlabeled CLC to the reaction mixture.
For the competition assay, bovine brain tubulin (0.2 mg/ml) was incubated in the microtubule assembly buffer with 0.5 μM [^3H]CLC and various concentrations of competitors for 20 min at 37° C. [^3H]CLC binding was measured as described above.

pIC50, pKi: −log10 of the molar value.

Results on 2 molecules are retold here after US20040102454A1, “Phenylahistin and the phenylahistin analogs, a new class of anti-tumor compounds” (priority 1998, published 2004).

Regarding `C=CC(C)(C)c1[nH]cnc1/C=C1\NC(=O)[C@H](Cc2ccccc2)NC1=O` (racemic) [PLH, phenylahistin], the antimicrobial activity result in data set [1] is recorded as “No antimicrobial activity”; in data set [2] it was “No antimicrobial activity”; in the data set with Bacillus natto it was “No antimicrobial activity”; in data set [3], “no antimicrobial activity”. Further, the “Inhibiting effect (cell cycle)” value in the data set with Cell strain A431 (Concentration 0.5 μg/ml) is “Absent (Absent: The cell cycle stopped at the G2/M phase in less than 10% of the cells.)”; in the data set on Cell strain A431 (Concentration 1.0 μg/ml), “Absent (Absent: The cell cycle stopped at the G2/M phase in less than 10% of the cells.)”; with Cell strain A431 (Concentration 2.0 μg/ml), “Slight (Slight: The cell cycle stopped at the G2/M phase in not less than 10% and less than 50% of the cells.)”; in the data set with Cell strain A431 (Concentration 4.0 μg/ml) it was “Slight (Slight: The cell cycle stopped at the G2/M phase in not less than 10% and less than 50% of the cells.)”; in the data set on Cell strain A431 (Concentration 8.0 μg/ml), “Present (Present: The cell cycle stopped at the G2/M phase in not less that 50% of the cells.)”; in the data set on Cell strain A431 (Concentration 32.0 μg/ml), “Present (Present: The cell cycle stopped at the G2/M phase in not less that 50% of the cells.)”. Moreover, in the data set on 38 tumor cell lines, the GI50 – broadly, the concentration that inhibits growth by half – was 230 to 40000 nM. Also, the solubility entry is recorded as “soluble” in data set [4] (in ethyl acetate, chloroform, methanol, and pyridine); “only slightly soluble” in data set [4] (in water, benzene, and toluene).

As for `C=CC(C)(C)c1[nH]cnc1/C=C1\NC(=O)[C@H](Cc2ccccc2)NC1=O` [(−)-phenylahistin], the “microtubule structures by electron microscopy” value in the data set on Microtubule protein is on record as “did not contain such structures”. The minimum inhibitory concentration (MIC) with C. albicans 90028 and in the data set on C. albicans 10231 was more than 70 µg/mL throughout. In addition, the pIC50 (as a rule, the negative decadic logarithm of the IC50, by convention in mol/L) was 6.52 in the data set with A549 (lung); 6.70 with Hela (ovary); 6.74 in the data set with WiDr (colon); 6.48 in the data set with MCF7 (breast); 6.72 in the data set with K562 (leukemia); 6.66 in the data set on A-431 (damal). Further, the pKi – broadly, the negative decadic logarithm of the Ki, by convention in mol/L – at bovine brain tubulin is 5.13.
